Assay results taken from patent publication US10023552B2, “Method of preparing a liquiritigenin precursor” (priority 2014, dated 2018).
Where two headings read alike, the source gives them in different places.

Columns and labels:
[1] = tested on: human liver cancer cells SMMC7721; conditions: cited from earlier work
[2] = tested on: human lung cancer cells A549; conditions: cited from earlier work
[3] = tested on: human poorly differentiated gastric cancer line BGC-823; conditions: cited from earlier work
[4] = tested on: human leukemia cells HL-60; conditions: cited from earlier work
[5] = Acute toxicity test (Japan Food Analysis Center); assay type: in vivo; conditions: tested in Japan Food Analysis Center
Description: The desired product iso-liquiritigenin were tested for acute toxicity in Japan Food Analysis Center and it was confirmed that there is no toxicity.

## O=C1C[C@@H](c2ccc(O)cc2)Oc2cc(O)ccc21 [Liquiritigenin, liquiritigenin]
[1]; Conc. 1 μg/ml
  SMMC7721 Inhibition %: 23.17%
[1]; Conc. 10 μg/ml
  SMMC7721 Inhibition %: 96.08%
[1]; Conc. 100 μg/ml
  SMMC7721 Inhibition %: 98.00%
[2]; Conc. 1 μg/ml
  A549 Inhibition %: 7.76%
[2]; Conc. 10 μg/ml
  A549 Inhibition %: 35.66%
[2]; Conc. 10 μg/ml, listed as Liquiritigenin (−)
  A549 Inhibition %: 35.06%
[2]; Conc. 100 μg/ml
  A549 Inhibition %: 93.03%
[3]; Conc. 1 μg/ml
  BGC-823 Inhibition %: 24.41%
[3]; Conc. 10 μg/ml
  BGC-823 Inhibition %: 73.76%
[3]; Conc. 100 μg/ml
  BGC-823 Inhibition %: 97.52%
[4]; Conc. 1 μg/ml
  HL-60 Inhibition %: 50.95%
[4]; Conc. 10 μg/ml
  HL-60 Inhibition %: 64.40%
[4]; Conc. 100 μg/ml
  HL-60 Inhibition %: 99.30%

## COc1cccc2c1C(=O)c1c(O)c3c(c(O)c1C2=O)C[C@@](O)(C(=O)CO)C[C@@H]3O[C@H]1C[C@H](N)[C@H](O)[C@H](C)O1 [adriamycin, reference compound]
[1]; Conc. 1 × 10^−5 Mol/l
  SMMC7721 Inhibition %: 97.47%
[1]; Conc. 1 × 10^−6 Mol/l
  SMMC7721 Inhibition %: 58.40%
[1]; Conc. 1 × 10^−7 Mol/l
  SMMC7721 Inhibition %: 10.28%
[2]; Conc. 1 × 10^−5 Mol/l
  A549 Inhibition %: 90.44%
[2]; Conc. 1 × 10^−6 Mol/l
  A549 Inhibition %: 16.42%
[2]; Conc. 1 × 10^−7 Mol/l
  A549 Inhibition %: 16.42%
[3]; Conc. 1 × 10^−5 Mol/l
  BGC-823 Inhibition %: 97.67%
[3]; Conc. 1 × 10^−6 Mol/l
  BGC-823 Inhibition %: 45.80%
[3]; Conc. 1 × 10^−7 Mol/l
  BGC-823 Inhibition %: 17.86%
[4]; Conc. 1 × 10^−5 Mol/l
  HL-60 Inhibition %: 99.09%

## O=C(/C=C/c1ccc(O)cc1)c1ccc(O)cc1O [iso-liquiritigenin]
[5]
  acute toxicity: no toxicity
